Values of other authors as cited in US20230233180A1, “Emergency Ultrasound Gel” (priority 2022, published 2023).
≈ marks a conversion by molar mass, not a printed value. Read-outs that look alike come from different tables or passages of the source.

Assays:
[1] = system: wide variety of yeast and fungi
wide range of bacteria = details: bactericidal

Row | Compound | MIC (Candida albicans; Canddia albicans M9) | MIC (Candida albicans; Candida albicans 10231) | MIC (Candida albicans; Candida albicans H33) | MIC (Candida albicans; Candida albicans H37) | MIC (Candida albicans; Candida albicans H38) | MIC (Candida albicans; Candida albicans M28) | MIC (Candida albicans; Candida albicans M36) | MIC (Candida albicans; Candida albicans SCO) | MIC (Candida albicans; Candida albicans Ser5) | MIC (Candida albicans; Candida. albicans H65) | antifungal effect [1] | concentration that kills a wide range of bacteria (wide range of bacteria)
1 | CCCCN1CCCCC1C(=O)Nc1c(C)cccc1C (stereo not shown) [Bupivacaine] | 1300 µg/mL (≈ 4.51 mM) | 2500 µg/mL (≈ 8.67 mM) | 2500 µg/mL (≈ 8.67 mM) | 5000 µg/mL (≈ 17.3 mM) | 2500 µg/mL (≈ 8.67 mM) | 1300 µg/mL (≈ 4.51 mM) | 2500 µg/mL (≈ 8.67 mM) | 1300 µg/mL (≈ 4.51 mM) | 2500 µg/mL (≈ 8.67 mM) | 1300 µg/mL (≈ 4.51 mM) | – | –
2 | CCN(CC)CC(=O)Nc1c(C)cccc1C [Lidocaine] | 2500 µg/mL (≈ 10.7 mM) | 5000 µg/mL (≈ 21.3 mM) | 5000 µg/mL (≈ 21.3 mM) | 10000 µg/mL (≈ 42.7 mM) | 5000 µg/mL (≈ 21.3 mM) | 2500 µg/mL (≈ 10.7 mM) | 5000 µg/mL (≈ 21.3 mM) | 2500 µg/mL (≈ 10.7 mM) | 5000 µg/mL (≈ 21.3 mM) | 2500 µg/mL (≈ 10.7 mM) | – | –
3 | O=C([O-])CNCO.[Na+] [Sodium hydroxymethylglycinate] | – | – | – | – | – | – | – | – | – | – | does not have strong antifungal effect | 0.09%
